In patent US12215085B2 (priority 2019, dated 2025):
Marks after values point to notes of the source that are not given here.

Test system: rats with common carotid artery occlusion-induced vascular dementia
Experiment: Water maze test, common carotid artery occlusion-induced vascular dementia rats
Type: in vivo, rat
Details: for adopted strategy for reaching the platform (the peripheral type and the random type %) / orientation angle for reaching the platform / speed for reaching the platform / swimming path length for reaching the platform / time for reaching the platform: succinate; for orientation angle for reaching the platform / speed for reaching the platform / swimming path length for reaching the platform / time for reaching the platform: x ± s
Text: A rat blood vessel dementia model was made according to the references [ZHAO Xian-lin, FANG Xiu-bin, LI Dong-pei. Establishment of Vascular Dementia Model in Rats, J Chin Med Univ, 2002, 31 (3): 166-168; WANG Yong-yan, Zhang Bo-li, Editor-in-chief. Modern Chinese Medicine Clinic and Research on Vascular Dementia, People's Medical Publishing House, October 2003, First Version 214]: Chloral hydrate 0.4 g/kg was intraperitoneally injected for anesthetizing rats, and bilateral common carotid arteries were isolated and ligated. The animals were fed for 16 weeks, divided into groups on the last 7 days, and administered. The normal control group and the model group were administrated through the intragastric route with distilled water by 0.5 ml/100 g, the positive control group was administrated through the intragastric route with donepezil hydrochloride by 1.75 mg/kg (equivalent to 3.85 times the clinical daily dosage of 5 mg/70 kg), the low, medium and high-dose groups of Crystal Form A of octahydroaminoacridine succinate were administrated through the intragastric route with Crystal Form A of octahydroaminoacridine succinate by 0.7, 1.4 and 2.8 mg/kg (equivalent to 0.96, 1.92 and 3.85 times the clinical daily dosage of 8 mg/70 kg). The water maze test and the step-down test were carried out after continuous administration for 7 days, and the administration was continued during the test period. The water maze test was continuously performed for 7 days, in the first 6 days, in four different water entry points of quadrants 1, 2, 3 and 4, the time, the swimming path length, the orientation angle and the average speed of the rat reaching the platform were measured, meanwhile, the strategy for reaching the platform adopted by rats was observed, on the 7th day, the platform was removed, the number of rats crossing the platform in 2 minutes, the residence time in the platform area, the residence time in the platform quadrants, the percentage of the swimming path length in the platform area quadrants to the total swimming path length, the average speed and the orientation angle were measured. After the water maze test was finished, the step-down test was performed, and the number of electric shocks (or called as the error number) received by each rat within 5 minutes was recorded as the learning performance. The test was performed again after 24 hours, namely, the memory retention test, and the latent period for stepping-down the platform for the first time and the error number in five minutes were recorded. After the step-down test was finished, the brain was taken quickly for pathological examination, and the pathological changes of the hippocampus and the cortex were observed.

[1] = Day 1, 0.7 mg/kg intragastric, 0.7 mg/kg
[2] = Day 1, 1.4 mg/kg intragastric, 1.4 mg/kg
[3] = Day 1, 2.8 mg/kg intragastric, 2.8 mg/kg
[4] = Day 2, 0.7 mg/kg intragastric, 0.7 mg/kg
[5] = Day 2, 1.4 mg/kg intragastric, 1.4 mg/kg
[6] = Day 2, 2.8 mg/kg intragastric, 2.8 mg/kg
[7] = Day 3, 0.7 mg/kg intragastric, 0.7 mg/kg
[8] = Day 3, 1.4 mg/kg intragastric, 1.4 mg/kg
[9] = Day 3, 2.8 mg/kg intragastric, 2.8 mg/kg
[10] = Day 4, 0.7 mg/kg intragastric, 0.7 mg/kg
[11] = Day 4, 1.4 mg/kg intragastric, 1.4 mg/kg

Nc1c2c(nc3c1CCCC3)CCCC2.O=C(O)CCC(=O)O [Crystal Form A, 9-amino-1,2,3,4,5,6,7,8-octahydroacridine succinate]
swimming path length for reaching the platform vs model group (1.4 mg/kg, Day 4, P<0.05): obviously shortened | latent period for reaching the platform vs model group (1.4 mg/kg, Day 4 to Day 6, P<0.05 or P<0.01): obviously shortened | swimming path length for reaching the platform vs model group (2.8 mg/kg, Day 3, P<0.05): obviously shortened | latent period for reaching the platform vs model group (2.8 mg/kg, Day 3 to Day 6, P<0.05 or P<0.01): obviously shortened | orientation angle and swimming speed vs model group (0.7, 1.4 and 2.8 mg/kg, Day 1 to Day 6): not obviously changed | residence time in the platform quadrants, average speed, orientation angle and percentage of the swimming path length in the platform area quadrants to the total swimming path length vs model group (0.7, 1.4 and 2.8 mg/kg, Day 7): not obviously changed | number of rats crossing the platform within 2 minutes vs model group (1.4 and 2.8 mg/kg, Day 7, P<0.05): obviously increased | conversion from the peripheral type or the random type to the tendency type or the linear type in the strategy for looking for the platform (1.4 and 2.8 mg/kg, P<0.05 or P<0.01): obviously increased | adopted strategy for reaching the platform (the peripheral type and the random type %) [1]: 75.00% | orientation angle for reaching the platform [1]: 64.44 ± 24.84 ° | speed for reaching the platform [1]: 21.68 ± 6.14 cm/s | swimming path length for reaching the platform [1]: 1250.31 ± 599.61 cm | time for reaching the platform [1]: 60.40 ± 30.23 s | adopted strategy for reaching the platform (the peripheral type and the random type %) [2]: 92.50% | orientation angle for reaching the platform [2]: 63.00 ± 21.34 ° | speed for reaching the platform [2]: 22.93 ± 7.28 cm/s | swimming path length for reaching the platform [2]: 1491.17 ± 529.46 cm | time for reaching the platform [2]: 75.55 ± 32.44 s | adopted strategy for reaching the platform (the peripheral type and the random type %) [3]: 87.50% | orientation angle for reaching the platform [3]: 75.34 ± 20.00 ° | speed for reaching the platform [3]: 23.52 ± 5.71 cm/s | swimming path length for reaching the platform [3]: 1555.98 ± 522.10 cm | time for reaching the platform [3]: 69.25 ± 15.97 s | adopted strategy for reaching the platform (the peripheral type and the random type %) [4]: 86.00% | orientation angle for reaching the platform [4]: 52.13 ± 14.28 ° | speed for reaching the platform [4]: 23.68 ± 5.10 cm/s | swimming path length for reaching the platform [4]: 1368.59 ± 636.46 cm | time for reaching the platform [4]: 55.04 ± 31.39 s | adopted strategy for reaching the platform (the peripheral type and the random type %) [5]: 65.00% | orientation angle for reaching the platform [5]: 48.91 ± 15.52 ° | speed for reaching the platform [5]: 29.02 ± 6.70 cm/s | swimming path length for reaching the platform [5]: 917.85 ± 346.36 cm | time for reaching the platform [5]: 38.71 ± 18.28 s | adopted strategy for reaching the platform (the peripheral type and the random type %) [6]: 82.50% | orientation angle for reaching the platform [6]: 57.20 ± 22.99 ° | speed for reaching the platform [6]: 28.32 ± 7.08 cm/s | swimming path length for reaching the platform [6]: 1025.55 ± 559.44 cm | time for reaching the platform [6]: 40.76 ± 23.88 s | adopted strategy for reaching the platform (the peripheral type and the random type %) [7]: 66.67% | orientation angle for reaching the platform [7]: 57.18 ± 14.54 ° | speed for reaching the platform [7]: 26.27 ± 6.15 cm/s | swimming path length for reaching the platform [7]: 698.11 ± 448.85 cm | time for reaching the platform [7]: 29.31 ± 15.94 s | adopted strategy for reaching the platform (the peripheral type and the random type %) [8]: 65.00* % | orientation angle for reaching the platform [8]: 53.59 ± 14.56 ° | speed for reaching the platform [8]: 25.25 ± 5.42 cm/s | swimming path length for reaching the platform [8]: 804.05 ± 351.90 cm | time for reaching the platform [8]: 30.21 ± 14.13 s | adopted strategy for reaching the platform (the peripheral type and the random type %) [9]: 60.00* % | orientation angle for reaching the platform [9]: 41.65 ± 17.28 ° | speed for reaching the platform [9]: 24.59 ± 6.25 cm/s | swimming path length for reaching the platform [9]: 512.17 ± 265.98 cm | time for reaching the platform [9]: 21.75 ± 9.58 s | adopted strategy for reaching the platform (the peripheral type and the random type %) [10]: 69.00% | orientation angle for reaching the platform [10]: 55.89 ± 20.65 ° | speed for reaching the platform [10]: 25.53 ± 8.12 cm/s | swimming path length for reaching the platform [10]: 838.00 ± 799.29 cm | time for reaching the platform [10]: 35.34 ± 35.48 s | adopted strategy for reaching the platform (the peripheral type and the random type %) [11]: 42.50** % | orientation angle for reaching the platform [11]: 50.23 ± 20.86 ° | speed for reaching the platform [11]: 28.54 ± 9.09 cm/s | swimming path length for reaching the platform [11]: 461.53 ± 216.01 cm | time for reaching the platform [11]: 19.79 ± 10.95 s | adopted strategy for reaching the platform (the peripheral type and the random type %) (Day 4, 2.8 mg/kg intragastric, 2.8 mg/kg): 62.50* %
